Data: article PMC11766267 (International Journal of Molecular Sciences, 2025)
Several values for one entry are separate records, joined by “and”; a condition that tells them apart may be missing. Identical values can stand only once. Like-named read-outs stand apart in the source and are kept apart here.

Assays:
HCT-116 = experiment: MTT cytotoxicity assay, HCT-116; assay type: cell-based; settings: Homo sapiens, 24 h treatment, mean ± SD of triplicate
Method: (§1) Subsequently, 100 µL of dimethyl sulfoxide was introduced to dissolve the insoluble formazan.

MDA-MB-231 = experiment: MTT cytotoxicity assay, MDA-MB-231; assay type: cell-based; settings: Homo sapiens, 24 h treatment, mean ± SD of triplicate
Method: as §1

HeLa = experiment: MTT cytotoxicity assay, HeLa; assay type: cell-based; settings: Homo sapiens, 24 h treatment, mean ± SD of triplicate
Method: as §1

MCF-7 [1] = experiment: MTT cytotoxicity assay, MCF-7; assay type: cell-based, human; settings: Homo sapiens, MCF7, 24 h, 24 h treatment, mean ± SD of triplicate
Method: as §1

[2] = MTT cytotoxicity assay, normal cell line WI-38; assay type: cell-based, human; settings: human, WI-38 cells (normal human lung fibroblasts), normal (non-cancer) cell line, 24 h treatment
Method: as §1

[3] = system: HCT-116, MDA-MB-231, HeLa, and MCF-7; experiment: MTT cytotoxicity assay, ranges stated over several cell lines; assay type: cell-based; settings: Homo sapiens
Method: as §1

[4] = molecular target: T1, aromatase (CYP19A, EC 1.14.14.14) (Homo sapiens, UniProt P11511); experiment: biochemical; settings: individual Data 1-3
T1 construct: Microsomal samples were isolated from tissue using the Microsome Isolation Kit; tissue BioVision K983-100; host or cells: microsomes from an unnamed tissue
T1 sequence (P11511 1-503): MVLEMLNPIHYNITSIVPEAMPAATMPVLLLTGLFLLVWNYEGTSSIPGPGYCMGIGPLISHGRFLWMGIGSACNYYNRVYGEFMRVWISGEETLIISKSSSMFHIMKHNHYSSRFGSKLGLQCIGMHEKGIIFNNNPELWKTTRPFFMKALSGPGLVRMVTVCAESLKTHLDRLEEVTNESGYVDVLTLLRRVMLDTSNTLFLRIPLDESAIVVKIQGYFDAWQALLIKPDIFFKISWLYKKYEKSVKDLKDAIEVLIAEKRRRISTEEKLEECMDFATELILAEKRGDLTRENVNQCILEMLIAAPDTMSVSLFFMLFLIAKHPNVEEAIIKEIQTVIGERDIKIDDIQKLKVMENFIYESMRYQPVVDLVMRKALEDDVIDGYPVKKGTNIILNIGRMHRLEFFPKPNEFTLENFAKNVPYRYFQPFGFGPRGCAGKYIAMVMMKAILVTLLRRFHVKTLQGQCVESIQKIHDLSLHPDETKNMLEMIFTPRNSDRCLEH
Method: In vitro aromatase assay was performed using the BioVision Aromatase Activity Assay Kit (Catalog # K983-100; BioVision, Milpitas, CA, USA). Microsomal samples were isolated from tissue using the Microsome Isolation Kit (Cat. #K249; BioVision, Milpitas, CA, USA). A standard curve was established by diluting the Fluorescence Standard provided in the kit to create a 0.5 pmole/µL solution, followed by setting up a series of standards in a white 96-well plate, adjusting the total volume to 100 µL with aromatase assay buffer. For each reaction well, a 2X concentrated mix was prepared by adding 2–48 µL of the microsomal sample and 2 µL of the NADPH generating system, bringing the final volume to 50 µL with aromatase assay buffer. Background controls (no enzyme) and positive controls (with recombinant aromatase) were included. […] After a 10 min incubation at 37 °C, 30 µL of the substrate/NADP+ mixture was added to each well, and fluorescence was measured immediately in kinetic mode for 60 min at 37 °C. Finally, the change in fluorescence was calculated to determine the specific activity of aromatase using the formula provided in the kit protocol.

MCF-7 [5] = experiment: In vitro anti-estrogenic activity assay, MCF-7
MCF-7a = experiment: In vitro anti-estrogenic activity assay, MCF-7a
HER2 = HER2 (Homo sapiens, UniProt P04626); experiment: In vitro protein kinase inhibition assay (ELISA kit), HER2
CDK2 = CDK2 (Homo sapiens, UniProt P24941); experiment: In vitro protein kinase inhibition assay (ELISA kit), CDK2
VEGFR-2 = VEGFR-2 (Homo sapiens, UniProt P35968); experiment: In vitro protein kinase inhibition assay (ELISA kit), VEGFR-2; settings: individual Data 1-3
[6] = cell count relative to the control (17β-E2)

Chain of VEGFR-2 (P35968 20-1356): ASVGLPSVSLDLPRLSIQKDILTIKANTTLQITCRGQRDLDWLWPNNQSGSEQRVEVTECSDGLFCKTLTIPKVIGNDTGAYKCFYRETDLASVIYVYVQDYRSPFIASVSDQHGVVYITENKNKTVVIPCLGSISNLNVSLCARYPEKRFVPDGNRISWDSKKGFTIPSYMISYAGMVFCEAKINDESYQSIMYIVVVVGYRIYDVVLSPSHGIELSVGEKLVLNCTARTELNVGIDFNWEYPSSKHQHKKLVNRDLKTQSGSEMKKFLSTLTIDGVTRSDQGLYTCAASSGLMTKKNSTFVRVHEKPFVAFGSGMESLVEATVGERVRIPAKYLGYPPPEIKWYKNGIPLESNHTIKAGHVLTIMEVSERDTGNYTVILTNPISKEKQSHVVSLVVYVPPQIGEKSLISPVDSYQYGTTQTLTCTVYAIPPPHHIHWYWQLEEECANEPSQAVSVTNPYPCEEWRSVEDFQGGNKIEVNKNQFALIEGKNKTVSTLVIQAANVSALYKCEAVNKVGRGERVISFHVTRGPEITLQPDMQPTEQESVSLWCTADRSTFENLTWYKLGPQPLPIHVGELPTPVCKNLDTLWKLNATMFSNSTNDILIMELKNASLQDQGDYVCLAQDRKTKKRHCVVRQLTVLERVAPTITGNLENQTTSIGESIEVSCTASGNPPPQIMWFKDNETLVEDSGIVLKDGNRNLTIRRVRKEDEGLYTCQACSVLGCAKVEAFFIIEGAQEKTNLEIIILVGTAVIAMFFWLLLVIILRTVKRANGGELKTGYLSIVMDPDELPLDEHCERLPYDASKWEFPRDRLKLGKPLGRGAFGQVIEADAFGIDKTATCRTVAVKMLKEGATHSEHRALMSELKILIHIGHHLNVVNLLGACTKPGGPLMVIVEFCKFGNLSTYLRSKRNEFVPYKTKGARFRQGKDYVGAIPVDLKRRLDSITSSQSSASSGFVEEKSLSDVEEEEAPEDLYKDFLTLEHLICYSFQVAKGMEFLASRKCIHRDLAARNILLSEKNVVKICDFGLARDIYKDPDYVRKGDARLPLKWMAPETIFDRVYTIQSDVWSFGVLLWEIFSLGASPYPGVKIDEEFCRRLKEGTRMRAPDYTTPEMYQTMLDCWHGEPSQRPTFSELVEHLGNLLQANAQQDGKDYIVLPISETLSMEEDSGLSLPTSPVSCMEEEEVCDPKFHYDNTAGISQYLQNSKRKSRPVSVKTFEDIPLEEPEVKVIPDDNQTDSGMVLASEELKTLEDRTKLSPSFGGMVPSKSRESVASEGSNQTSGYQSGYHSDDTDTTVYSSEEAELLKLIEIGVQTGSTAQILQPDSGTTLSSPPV
Chain of HER2 (P04626 23-1255): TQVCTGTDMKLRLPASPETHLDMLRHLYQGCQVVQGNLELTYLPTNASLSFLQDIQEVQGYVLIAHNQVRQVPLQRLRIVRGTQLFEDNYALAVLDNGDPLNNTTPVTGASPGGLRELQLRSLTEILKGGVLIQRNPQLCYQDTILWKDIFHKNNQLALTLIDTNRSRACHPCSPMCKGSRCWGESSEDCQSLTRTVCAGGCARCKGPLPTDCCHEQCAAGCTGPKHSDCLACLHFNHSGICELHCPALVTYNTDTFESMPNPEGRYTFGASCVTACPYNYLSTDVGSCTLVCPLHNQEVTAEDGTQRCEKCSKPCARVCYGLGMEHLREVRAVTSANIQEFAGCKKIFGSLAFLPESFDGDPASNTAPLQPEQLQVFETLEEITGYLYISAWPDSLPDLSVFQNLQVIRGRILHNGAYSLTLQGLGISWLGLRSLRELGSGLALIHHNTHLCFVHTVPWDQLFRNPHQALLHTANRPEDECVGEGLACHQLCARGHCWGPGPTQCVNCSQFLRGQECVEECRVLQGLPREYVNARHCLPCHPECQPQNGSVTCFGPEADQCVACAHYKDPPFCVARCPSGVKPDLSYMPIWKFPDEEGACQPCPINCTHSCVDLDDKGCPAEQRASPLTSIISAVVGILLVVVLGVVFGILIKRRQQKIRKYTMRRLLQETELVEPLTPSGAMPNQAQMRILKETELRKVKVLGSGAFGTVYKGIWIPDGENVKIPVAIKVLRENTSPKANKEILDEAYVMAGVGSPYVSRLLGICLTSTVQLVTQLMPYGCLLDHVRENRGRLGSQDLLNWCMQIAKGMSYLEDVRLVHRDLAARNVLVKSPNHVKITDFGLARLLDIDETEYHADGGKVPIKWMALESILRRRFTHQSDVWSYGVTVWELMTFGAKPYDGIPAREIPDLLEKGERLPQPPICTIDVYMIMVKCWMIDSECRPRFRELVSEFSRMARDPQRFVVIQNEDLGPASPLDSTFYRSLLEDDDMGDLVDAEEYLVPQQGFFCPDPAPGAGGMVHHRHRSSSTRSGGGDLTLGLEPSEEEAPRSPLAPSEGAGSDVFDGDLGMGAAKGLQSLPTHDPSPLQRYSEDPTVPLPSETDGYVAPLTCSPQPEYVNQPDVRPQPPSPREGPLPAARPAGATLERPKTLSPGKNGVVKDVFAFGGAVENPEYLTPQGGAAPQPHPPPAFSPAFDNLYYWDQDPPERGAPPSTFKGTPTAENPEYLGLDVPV

## O=C(/C=C/c1ccc(O)cc1)c1ccccc1 [Compound 4b, (E)-3-(4-Hydroxyphenyl)-1-phenylprop-2-en-1-one]
HCT-116
  IC50: 6.59 ± 0.3 µM
MDA-MB-231
  IC50: 4.93 ± 0.3 µM
HeLa
  IC50: 13.1 ± 1.1 µM
MCF-7 [1]
  IC50: 2.08 ± 0.1 µM
[2]
  IC50 at 24 h: 54.6 ± 3.1 µM
[3]; HCT-116, MDA-MB-231, HeLa, MCF-7, range, read-out: IC50 values, range over the cancer cell lines tested
  IC50: 2.08 to 34.9 µM
[3]; HCT-116 and HeLa, range over the compounds named, read-out: IC50 values, range against HCT-116 and HeLa
  IC50: 6.59 to 22.6 µM
[3]; MDA-MB-231 and MCF-7, range over the compounds named, read-out: IC50 values, range against MDA-MB-231 and MCF-7
  IC50: 2.08 to 13.6 µM
[4]; 0.01 µM
  Inhibition (%) Aromatase: 5.7% and 3.5% and 7.9%
[4]; 0.1 µM
  Inhibition (%) Aromatase: 9.9% and 14.2%
[4]; 1 µM
  Inhibition (%) Aromatase: 44% and 41.7%
[4]; 10 µM
  Inhibition (%) Aromatase: 72.5% and 78.6%
[4]; 100 µM
  Inhibition (%) Aromatase: 87% and 93.8%
[4]; read-out: Inhibition (%) Aromatase, 0.1 µM
  inhibition at 0.1 µM: 11%
[4]; read-out: Inhibition (%) Aromatase, 1 µM
  inhibition at 1 µM: 47.8%
[4]; read-out: Inhibition (%) Aromatase, 10 µM
  inhibition at 10 µM: 75%
[4]; read-out: Inhibition (%) Aromatase, 100 µM
  inhibition at 100 µM: 89%
MCF-7 [5]; [6]
  Cell Proliferation MCF-7 %: 34%
MCF-7 [5]; mean ± SD of triplicate
  Cell Proliferation MCF-7 Cell Count: 6213 ± 221
MCF-7 [5]; relative to control
  Reduction of growth/cell count (inhibition) in MCF-7: 66%
MCF-7a; [6]
  Cell Proliferation MCF-7a %: 99%
MCF-7a; mean ± SD of triplicate
  Cell Proliferation MCF-7a Cell Count: 20,669 ± 597
HER2
  IC50: 0.387 ± 0.015 µM
HER2; 0.01 µM, individual Data 1-3
  Inhibition (%) Her2: 8.76% and 10.34%
HER2; 0.1 µM, individual Data 1-3
  Inhibition (%) Her2: 36.2% and 38.76%
HER2; 1 µM, individual Data 1-3
  Inhibition (%) Her2: 71.3% and 70.87%
HER2; 10 µM, individual Data 1-3
  Inhibition (%) Her2: 80.35% and 82.9%
HER2; 100 µM, individual Data 1-3
  Inhibition (%) Her2: 93% and 95.67%
HER2; read-out: Inhibition (%) Her2, 0.01 µM, individual Data 1-3
  inhibition at 0.01 µM: 9.25%
HER2; read-out: Inhibition (%) Her2, 0.1 µM, individual Data 1-3
  inhibition at 0.1 µM: 37.7%
HER2; read-out: Inhibition (%) Her2, 1 µM, individual Data 1-3
  inhibition at 1 µM: 73%
HER2; read-out: Inhibition (%) Her2, 10 µM, individual Data 1-3
  inhibition at 10 µM: 81.6%
HER2; read-out: Inhibition (%) Her2, 100 µM, individual Data 1-3
  inhibition at 100 µM: 94.2%
CDK2
  IC50: 0.288 ± 0.009 µM
CDK2; 0.01 µM, individual Data 1-3
  Inhibition (%) CDK2: 18.7% and 19.5%
CDK2; 0.1 µM, individual Data 1-3
  Inhibition (%) CDK2: 38.2% and 39.3%
CDK2; 1 µM, individual Data 1-3
  Inhibition (%) CDK2: 66.1% and 65.3%
CDK2; 10 µM, individual Data 1-3
  Inhibition (%) CDK2: 84.9% and 86%
CDK2; 100 µM, individual Data 1-3
  Inhibition (%) CDK2: 94.8%
CDK2; read-out: Inhibition (%) CDK2
  inhibition at 100 µM: 93.8%
CDK2; read-out: Inhibition (%) CDK2, 0.01 µM, individual Data 1-3
  inhibition at 0.01 µM: 19.1%
CDK2; read-out: Inhibition (%) CDK2, 0.1 µM, individual Data 1-3
  inhibition at 0.1 µM: 38.5%
CDK2; read-out: Inhibition (%) CDK2, 1 µM, individual Data 1-3
  inhibition at 1 µM: 66.9%
CDK2; read-out: Inhibition (%) CDK2, 10 µM, individual Data 1-3
  inhibition at 10 µM: 85.4%
CDK2; read-out: Inhibition (%) CDK2, 100 µM, individual Data 1-3
  inhibition at 100 µM: 94.1%
VEGFR-2; 0.01 µM
  Inhibition (%) VEGFR2: 19.2% and 19.7%
VEGFR-2; 0.1 µM
  Inhibition (%) VEGFR2: 48.2% and 48.6%
VEGFR-2; 1 µM
  Inhibition (%) VEGFR2: 73.4%
VEGFR-2; 10 µM
  Inhibition (%) VEGFR2: 89% and 90%
VEGFR-2; 100 µM
  Inhibition (%) VEGFR2: 95.9%
VEGFR-2; read-out: Inhibition (%) VEGFR2, 0.01 µM
  inhibition at 0.01 µM: 19.4%
VEGFR-2; read-out: Inhibition (%) VEGFR2, 0.1 µM
  inhibition at 0.1 µM: 48.3%
VEGFR-2; read-out: Inhibition (%) VEGFR2, 1 µM
  inhibition at 1 µM: 73.8%
VEGFR-2; read-out: Inhibition (%) VEGFR2, 10 µM
  inhibition at 10 µM: 89.5%
VEGFR-2; read-out: Inhibition (%) VEGFR2, 100 µM
  inhibition at 100 µM: 96.1%
